Results as given in PubChem BioAssay AID296 (DTP/NCI, 2004).
“And” between values parts separate entries of the source, which are not always exact repeats. Equal values may be shown once. Inconclusive results are not listed.

Tested on: MX-1 breast xenograft, nude mice, tumor weight T/C
Test: NCI In Vivo Anticancer Drug Screen. Data for tumor model Human Mammary Carcinoma MX-1 Xenograft (intrarenal inoculation) in NU/NU Swiss (nude) mice
Conditions: endpoint: mean tumor weight change, higher = larger tumour
Summary of the method: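 Read-out: treated (T) over vehicle control (C) ratio of survival or tumor size. Dosing in animals carrying the transplanted tumor.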

[1] = dose: 300.0 mg/kg/injection, schedule: Q04DX003 (sc), vehicle: Klucel (hydroxypropylcellulose) (HPC)
[2] = dose: 600.0 mg/kg/injection, schedule: Q04DX003 (sc), vehicle: Klucel (hydroxypropylcellulose) (HPC)
[3] = dose: 1200.0 mg/kg/injection, schedule: Q04DX003 (sc), vehicle: Klucel (hydroxypropylcellulose) (HPC)
[4] = dose: 2400.0 mg/kg/injection, schedule: Q04DX003 (sc), vehicle: Klucel (hydroxypropylcellulose) (HPC)
[5] = dose: 300.0 mg/kg/injection, schedule: Q04DX003 (sc), vehicle: saline with Tween-80
[6] = dose: 600.0 mg/kg/injection, schedule: Q04DX003 (sc), vehicle: saline with Tween-80
[7] = dose: 200.0 mg/kg/injection, schedule: Q04DX003 (sc), vehicle: saline with Tween-80
[8] = dose: 400.0 mg/kg/injection, schedule: Q04DX003 (sc), vehicle: saline with Tween-80

COc1cc([C@@H]2c3cc4c(c(O)c3C[C@H]3COC(=O)[C@@H]32)OCO4)cc(OC)c1O
T/C (dose: 0.5 mg/kg/injection, schedule: Q01DX010 (sc), vehicle: saline): 121 % of control
T/C (dose: 1.0 mg/kg/injection, schedule: Q01DX010 (sc), vehicle: saline): 114 % of control
T/C (dose: 2.0 mg/kg/injection, schedule: Q01DX010 (sc), vehicle: saline): 87 % of control
T/C (dose: 3.13 mg/kg/injection, schedule: Q01DX010 (sc), vehicle: saline): 104 % of control
T/C (dose: 4.0 mg/kg/injection, schedule: Q01DX010 (sc), vehicle: saline): 98 % of control
T/C (dose: 6.25 mg/kg/injection, schedule: Q01DX010 (sc), vehicle: saline): 34 % of control

Cc1c(-c2ccc(C3CCCCC3)cc2)nc2ccc(F)cc2c1C(=O)O
T/C [1]: 86 % of control
T/C [2]: 75 % of control
T/C [3]: 80 % of control
T/C [4]: 96 % of control

O=S1(=O)C=C(c2ccccc2)C(c2ccccc2)=C1
T/C [5]: 80 % of control
T/C [6]: 71 % of control
T/C (dose: 1200.0 mg/kg/injection, schedule: Q04DX003 (sc), vehicle: saline with Tween-80): 83 % of control
T/C (dose: 2400.0 mg/kg/injection, schedule: Q04DX003 (sc), vehicle: saline with Tween-80): 74 % of control

COc1cccc2c1C(=O)c1c(O)c3c(c(O)c1C2=O)CC(O)(/C(C)=N/NC(=O)CCCCC(=O)N/N=C(\C)C1(O)Cc2c(O)c4c(c(O)c2C(OC2CC(N)C(O)C(C)O2)C1)C(=O)c1c(OC)cccc1C4=O)CC3OC1CC(N)C(O)C(C)O1 (stereo unspecified)
T/C (dose: 50.0 mg/kg/injection, schedule: Q04DX003 (sc), vehicle: water): 62 % of control
T/C (dose: 100.0 mg/kg/injection, schedule: Q04DX003 (sc), vehicle: water): 2 % of control

O=C(O)CC(=O)O.[NH-]CC[NH-].[Pt+2]
T/C (dose: 12.5 mg/kg/injection, schedule: Q01DX010 (sc), vehicle: dextrose): -100 % of control
T/C (dose: 100.0 mg/kg/injection, schedule: Q01DX010 (sc), vehicle: dextrose): -100 % of control

O=C1c2c(O)ccc(O)c2C(=O)c2c(NCCNCCO)ccc(NCCNCCO)c21
T/C (dose: 0.5 mg/kg/injection, schedule: Q01DX010 (sc), vehicle: acid diluted with saline): 40 % of control
T/C (dose: 2.0 mg/kg/injection, schedule: Q01DX010 (sc), vehicle: acid diluted with saline): 62 % of control
T/C (dose: 2.5 mg/kg/injection, schedule: Q04DX003 (sc), vehicle: other): 59 % of control
T/C (dose: 2.5 mg/kg/injection, schedule: Q04DX003 (sc), vehicle: water): 28 % of control
T/C (dose: 5.0 mg/kg/injection, schedule: Q04DX003 (sc), vehicle: other): 34 % of control
T/C (dose: 5.0 mg/kg/injection, schedule: Q04DX003 (sc), vehicle: water): 9 % of control and 29 % of control
T/C (dose: 10.0 mg/kg/injection, schedule: Q04DX003 (sc), vehicle: other): 8 % of control
T/C (dose: 10.0 mg/kg/injection, schedule: Q04DX003 (sc), vehicle: water): 6 % of control

O=C(O[Si](Cc1ccccc1)(Cc1ccccc1)Cc1ccccc1)N(CCCl)CCCl
T/C (dose: 100.0 mg/kg/injection, schedule: Q04DX003 (sc), vehicle: saline with Tween-80): 78 % of control
T/C [7]: 29 % of control

O=C1N=C(Oc2ccccc2)SC1=O
T/C [8]: 67 % of control

NC(=O)c1ccc[n+](Cc2c(Cl)cccc2Cl)c1
T/C (dose: 50.0 mg/kg/injection, schedule: Q04DX003 (sc), vehicle: saline): 92 % of control
T/C (dose: 100.0 mg/kg/injection, schedule: Q04DX003 (sc), vehicle: saline): 100 % of control

CCc1c(CC(=O)O)c2cc(C)ccc2n1Cc1ccc(Cl)cc1
T/C [1]: 71 % of control
T/C [2]: 86 % of control
T/C [3]: 51 % of control
T/C [4]: 49 % of control

CN(C)C1C(=O)C(C(=O)NP(=O)(NCCCO)N(CCCl)CCCl)=C(O)C2(O)C(=O)C3=C(O)c4c(O)cccc4C(C)(O)C3CC12 (stereo unspecified)
T/C (dose: 150.0 mg/kg/injection, schedule: Q04DX003 (sc), vehicle: saline with Tween-80): -100 % of control
T/C [5]: -98 % of control
T/C [6]: -100 % of control

C/C=C(\C)C(=O)OC1C(C)=C2C(C1OC(=O)CCCCC)C(C)(OC(C)=O)CC(OC(=O)CCC)C1(O)C2OC(=O)C1(C)O (stereo unspecified)
T/C (dose: 2.0 mg/kg/injection, schedule: Q04DX003 (ip), vehicle: Klucel (hydroxypropylcellulose) (HPC)): 52 % of control

C/C=C1\C[C@@H]2C(OC)Nc3cc(O)c(OC)cc3C(=O)N2C1 (stereo partly specified)
T/C (dose: 1.0 mg/kg/injection, schedule: Q04DX003 (sc), vehicle: saline): 78 % of control
T/C (dose: 2.0 mg/kg/injection, schedule: Q04DX003 (sc), vehicle: suspension in saline): 23 % of control and 31 % of control
T/C (dose: 4.0 mg/kg/injection, schedule: Q04DX003 (sc), vehicle: saline): 7 % of control and 26 % of control
T/C (dose: 4.0 mg/kg/injection, schedule: Q04DX003 (sc), vehicle: suspension in saline): 1 % of control and 3 % of control
T/C (dose: 8.0 mg/kg/injection, schedule: Q04DX003 (sc), vehicle: suspension in saline): -71 % of control

Oc1cc2c3c(c1)c1cc4c(cc1c[n+]3CC2)OCO4
T/C (dose: 200.0 mg/kg/injection, schedule: Q04DX003 (sc), vehicle: water): 72 % of control
T/C (dose: 400.0 mg/kg/injection, schedule: Q04DX003 (sc), vehicle: water): 100 % of control
T/C (dose: 1600.0 mg/kg/injection, schedule: Q04DX003 (sc), vehicle: water): 72 % of control

NC(C/[N+]([O-])=N/O)C(=O)O (stereo unspecified)
T/C (dose: 50.0 mg/kg/injection, schedule: Q01DX010 (sc), vehicle: saline): 98 % of control
T/C (dose: 100.0 mg/kg/injection, schedule: Q01DX010 (sc), vehicle: saline): 62 % of control

COc1cc(Cc2nccc3cc(OC)c(OC)cc23)c(C(C)=O)c(OC)c1
T/C (dose: 40.0 mg/kg/injection, schedule: Q01DX010 (sc), vehicle: saline): 103 % of control
T/C (dose: 80.0 mg/kg/injection, schedule: Q01DX010 (sc), vehicle: saline): 103 % of control
T/C (dose: 160.0 mg/kg/injection, schedule: Q01DX010 (sc), vehicle: saline): 93 % of control

C[Si](C)(C)O/C=C1\CCCCC1=O
T/C [7]: 94 % of control
T/C [8]: 89 % of control

O=C(N/N=C\c1cc(Br)cc(Br)c1O)N/N=C/c1cc(Br)cc(Br)c1O
T/C (dose: 400.0 mg/kg/injection, schedule: Q01DX010 (sc), vehicle: saline with Tween-80): 72 % of control
T/C (dose: 800.0 mg/kg/injection, schedule: Q01DX010 (sc), vehicle: saline with Tween-80): 61 % of control

O=c1c(O)c(-c2cc(O)c(O)c(O)c2)oc2cc(O)cc(O)c12
T/C (dose: 3.0 mg/kg/injection, schedule: Q04DX003 (sc), vehicle: saline with Tween-80): 117 % of control
T/C (dose: 6.0 mg/kg/injection, schedule: Q04DX003 (sc), vehicle: saline with Tween-80): 97 % of control
T/C (dose: 12.0 mg/kg/injection, schedule: Q04DX003 (sc), vehicle: saline with Tween-80): 108 % of control
T/C (dose: 24.0 mg/kg/injection, schedule: Q04DX003 (sc), vehicle: saline with Tween-80): 81 % of control

C[n+]1c(-c2cccc(OCCOCCOc3cccc(-c4c5cc(N)ccc5c5ccc(N)cc5[n+]4C)c3)c2)c2cc(N)ccc2c2ccc(N)cc21
T/C (dose: 4.0 mg/kg/injection, schedule: Q04DX003 (sc), vehicle: water): 92 % of control
T/C (dose: 64.0 mg/kg/injection, schedule: Q04DX003 (sc), vehicle: water): 73 % of control

O=C1C(=O)c2ccccc2C(O)=C1CC=C(Cl)Cl
T/C (dose: 25.0 mg/kg/injection, schedule: Q01DX010 (sc), vehicle: water): 68 % of control
T/C (dose: 50.0 mg/kg/injection, schedule: Q01DX010 (sc), vehicle: water): 110 % of control
T/C (dose: 100.0 mg/kg/injection, schedule: Q01DX010 (sc), vehicle: water): 109 % of control
T/C (dose: 200.0 mg/kg/injection, schedule: Q01DX010 (sc), vehicle: water): 106 % of control

COC1/C=C\C=C(/C)C(=O)NC2=CC(=O)C=C(C2=O)C(OC)C(C)CC(OC)C(OC)C(C)/C=C(/C)C1OC(N)=O (stereo unspecified)
T/C (dose: 2.25 mg/kg/injection, schedule: Q04DX003 (sc), vehicle: Klucel (hydroxypropylcellulose) (HPC)): 77 % of control
T/C (dose: 4.5 mg/kg/injection, schedule: Q04DX003 (sc), vehicle: Klucel (hydroxypropylcellulose) (HPC)): 63 % of control
T/C (dose: 9.0 mg/kg/injection, schedule: Q04DX003 (sc), vehicle: Klucel (hydroxypropylcellulose) (HPC)): 52 % of control

Cc1cc2c(c3oc(C4(C)OC4C4OC4C)cc(=O)c13)C(=O)c1c(O)c(C3CC(C)(N(C)C)C(O)C(C)O3)cc(C3CC(N(C)C)C(O)C(C)O3)c1C2=O (stereo unspecified)
T/C (dose: 0.05 mg/kg/injection, schedule: Q04DX003 (sc), vehicle: saline): 77 % of control
T/C (dose: 0.1 mg/kg/injection, schedule: Q04DX003 (sc), vehicle: saline): 30 % of control
